Measurements as given in patent publication US7655620B2, “Use of one or more metal carriers to selectively kill mammalian cells” (Cancure Laboratories, LLC, priority 2005, dated 2010).
“Also recorded” adds a separate entry of the source.

Columns and labels:
cancer cells = assay: Killing of cancer cells by dithiocarbamates in the absence or presence of cadmium/zinc; assay type: cell-based; conditions: for effectiveness in killing cancer cells in comparison to CCK3: 10-50 μM, absence or presence of 20 μM CdCl2/ZnCl2; for induction of cell death in the presence of cadmium or zinc: in vitro
Experimental: A large number of dithiocarbamates can be synthesized that, similar to 3-aminopropylpiperidine-1-carbodithioate (CCK3), contain a free amino group. Several of these compounds were synthesized and tested (in the range of 10-50 μM concentration) on cancer cells in the absence or presence of 20 μM CdCl2/ZnCl2 in comparison to CCK3, as follows. […] Similarly, 1-{[(3-aminopropyl)thio]carbonothiol}pyrrolidine-2-carboxilic acid.HCl salt (for structure see FIG. 1) was ineffective both in the absence and presence of cadmium/zinc. The last two compounds may be ineffective because the presence of carboxyl group may interfere with proper binding of cadmium and zinc to the molecule. 3-Aminopropylpyrrolidine-1-carbodithionate. […] From this list, it appears that not every free amino group-containing dithiocarbamate can effectively kill cells in the presence of cadmium and zinc. In some of these cases the metal atom may bind to the dithiocarbamate molecule too strongly (covalently), not allowing dissociation of the metal from the molecule once inside the cell. After comparison of the above compounds with the effects of CCK3, further experiments were principally carried out with PDC and CCK3. These are representative compounds that can be the most effectively and most economically used when either no further modification of the molecule is required (PDC) or when modification with a targeting moiety is required (CCK3).

[1] = test system: T47D human mammary gland ductal carcinoma cells; assay: Cell death judged from cell morphology (photographs); assay type: cell-based; conditions: 5 μM CCK3, 10 μM cadmium, alone or in combination; 4 hours; 10% serum-containing medium
MCF-7 cells [2] = assay: as above; assay type: cell-based, human; conditions: 20 μM CCK3, 120 μg/ml cadmium/MT, alone or combined; 8 hours; 10% serum
Experimental: (§1) The cells were cultured as described in Example 4.

[3] = test system: ZR-75-1 human breast cancer cells; assay: as above; assay type: cell-based
Experimental: ZR-75-1 cells were cultured in triplicate in 12-well plates in the medium described in Example 4. The cadmium/MT contained 5 atoms of cadmium and 1 atom of zinc, while the zinc/MT contained 5 atoms of zinc and 1 atom of cadmium per one MT molecule. ZR-75-1 cells were incubated in 10% serum-containing medium for 24 h in the absence (FIG. […] 6D), 240 μg/ml of zinc/MT (FIG. […] 6F).
(§2) Cells were cultured in triplicate in 12-well plates as described in Example 4. The ratio of cadmium and zinc in cadmium/MT was 5:1 per one MT molecule. ZR-75-1 cells were incubated in 10% serum-containing medium for 8 hours in the absence (FIG. 7A) or presence of 20 μM CCK3 (FIG. 7B), 120 μg/ml of cadmium/MT (FIG. 7C), or 120 μg/ml of cadmium/MT+20 μM CCK3 (FIG. 7D).

ZR-75-1 cells = test system: ZR-75-1 cells
Experimental: Biochem. Biophys. Res. Commun. […] Survival values obtained with untreated cells were considered 100%.
ZR-75-1 cells were cultured in triplicate in 12-well plates in the medium described in Example 4. The cadmium/MT contained 5 atoms of cadmium and 1 atom of zinc, while the zinc/MT contained 5 atoms of zinc and 1 atom of cadmium per one MT molecule. ZR-75-1 cells were incubated in 10% serum-containing medium for 24 h in the absence (FIG. 6A) or presence of 15 μM CCK3 (FIG. 6B), 60 μg/ml of cadmium/MT (FIG. 6C), 60 μg/ml of cadmium/MT+15 μM CCK3 (FIG. 6D), 240 μg/ml of zinc/MT (FIG. 6E), or 240 μg/ml of zinc/MT+15 μM CCK3 (FIG. 6F).
as §2

MCF-7 cells [4] = assay: Trypan blue exclusion assay; assay type: cell-based, human; conditions: 20 μM CCK3, 120 μg/ml cadmium/MT, alone or combined; 8 hours
Experimental: (§3) Biochem. Biophys. Res. Commun. 213, 980-985]. […] Survival values obtained with untreated cells were considered 100%. […] Cancer Res. 47, 936-942].
as §1

[5] = test system: cancer cells (CaOV-3, T47D and PC-3); assay: MTT assay / killing, statements over several cancer cell lines (metal/MTLP-25); assay type: cell-based, human; conditions: 20 μM CCK3, 100 μg/ml metal/MTLP-25, 24 hours; summary of Table 1
Experimental: The concentration range for these cadmium/MTLP-25 effects in some embodiments is 10-600 μg/ml, while in other embodiments, the concentration range is 50-200 μg/ml. Therapeutically effective concentrations of metal/MTLP-25 and CCK3 or PDC exert maximal effects on tumors without causing significant toxicity.
PC-3 human prostate adenocarcinoma cells were maintained and treated in Ham's F12K medium containing 7% fetal bovine serum. The CaOV-3 human ovarian adenocarcinoma cells were maintained and treated in Dulbecco's modified Eagle's medium containing 4 mM L-glutamine, 1.5 g/L sodium bicarbonate, 4.5 g/L glucose, 1 mM sodium pyruvate and 10% fetal bovine serum. T47D were maintained and treated in RPMI 1640 cell culture medium (see Gibco Catalogue) supplied with 2 mM L-glutamine, 10 mM Hepes, 1 mM sodium pyruvate, 4.5 g/L glucose, 1.5 g/L sodium bicarbonate, 0.2 I.U. bovine insulin/ml, and 10% fetal bovine serum. The cells were incubated in 96-well plates in the medium described above for 24 hours in the absence or presence of 20 μM CCK3 and/or 100 μg/ml of cadmium/MTLP-25 or 100 μg/ml of zinc/MTLP-25 as indicated in Table 1. After the treatment period, the MTT assay was used to determine the relative cell number of viable cells. Errors are expressed as S.D. (n=8 for each treatment).

T47D cells = assay: [3H]thymidine DNA synthesis; assay type: cell-based, human; conditions: 5 μM CCK3, 10 μM cadmium, alone or in combination; 4 hours; [3H]thymidine during last 30 min
Experimental: as §3
T47D Cells were cultured in RPMI 1640 cell culture medium (see Gibco Catalogue) supplied with 2 mM L-glutamine, 10 mM Hepes, 1 mM sodium pyruvate, 4.5 g/L glucose, 1.5 g/L sodium bicarbonate, 0.2 I.U. bovine insulin/ml, and 10% fetal bovine serum. The medium was changed for fresh 10% serum-containing medium 2 hours prior to treatments. For the treatments, the cells were incubated in triplicate in 12-well plates. The cells were untreated (FIG. 2A) or treated with 5 μM CCK3 alone (FIG. 2B), 10 μM cadmium alone (FIG. 2C), or 5 μM CCK3 and 10 μM cadmium in combination (FIG. 2D) for 4 hours in 10% serum-containing medium when the photographs were taken. […] Finally, cells were incubated with [^3H]thymidine (1 μCi/ml) during the last 30 min of treatment to determine DNA synthesis. Cadmium and CCK3 decreased DNA synthesis by 13 and 8% respectively, while in combination they had practically 100% inhibitory effect.

[6] = test system: MDA-MB-231 human mammary gland adenocarcinoma cells; assay: Cell death judged from cell morphology (photographs); assay type: cell-based; conditions: 5 μM CCK3, 10 μM cadmium, alone or in combination; 60 min; 10% serum-containing medium
Experimental: (§4) MDA-MB-231 cells were cultured in Leibovitz's L-15 medium and 10% fetal bovine serum; the medium was changed 2 hours prior to treatments. For the treatments, cells were incubated in triplicate in 12-well plates. A typical experiment with these cells is illustrated in FIG. 3. The cells were untreated (FIG. 3A) or treated with 5 μM CCK3 (FIG. 3B), 10 μM cadmium (FIG. 3C), or 5 μM CCK3+10 μM cadmium (FIG. 3D) for 60 min in 10% serum-containing medium. […] In some experiments, cells were also incubated with [^3H]thymidine (1 μCi/ml) during the last 30 min of treatment to determine DNA synthesis. Cadmium and […] decreased DNA synthesis by 6 and 12%, while in combination they had 100% inhibitory effect.
(§5) The cells were cultured as described in Example 4. The cadmium/MT contained 5 cadmium atoms per one MT molecule while zinc/MT contained 5 zinc atoms per one MT molecule. […] Thus, in this cell line cadmium/MT+PDC killed cells more rapidly and efficiently compared to the same amount of zinc/MT+PDC.

[7] = test system: various cancer and human normal 966 SK skin fibroblasts; assay: MTT assay, statements over all cell lines of Example 6; assay type: cell-based; conditions: CCK3 10 μM, cadmium/MT 60 μg/ml, alone or combined, 24 hour
Experimental: as §3
MCF-7 estrogen receptor positive human breast carcinoma cells and CaOV-3 human ovarian adenocarcinoma cells were grown in Dulbecco's modified Eagle's medium containing 4 mM L-glutamine, 1.5 g/L sodium bicarbonate, 4.5 g/L glucose, 1 mM sodium pyruvate and 10% fetal bovine serum. T47D human mammary gland ductal carcinoma cells and ZR-75-1 estrogen receptor positive human mammary gland ductal carcinoma cells were cultured in RPMI 1640 medium as indicated above. MB-468 and MB-231 human mammary gland adenocarcinoma cells were maintained in Leibovitz's L-15 medium as described above. AN3CA human endometrial adenocarcinoma and 966 SK normal human skin fibroblasts were cultured in Eagles's minimum essential medium supplemented with 0.1 mM non-essential amino acids and 10% fetal bovine serum. The preparation of MT (from Sigma-Aldrich, Inc.) used in this experiment contained about 4 ions of cadmium and only about 0.3 ions of zinc per MT molecule. […] The MTT assay was used for the determination of relative cell numbers. Data are illustrated in FIG. 4 as rates of growth inhibition (maximum inhibition=100%) in comparison to values without treatment. The error bars indicate S.D. (n=8). […]

MDA-MB-231 cells = assay: [3H]thymidine DNA synthesis; assay type: cell-based, human; conditions: 60 min treatment, 10 μM cadmium, alone or in combination; [3H]thymidine during last 30 min
Experimental: as §3, §4, §5

Compound: Cl.NCCCSC(=S)N1CCCC1C(=O)O (stereo not shown) [1-{[(3-aminopropyl)thio]carbonothiol}pyrrolidine-2-carboxilic acid.HCl salt]
- effectiveness in killing cancer cells in comparison to CCK3 (cancer cells): ineffective

Compound: NCCCSC(=S)N1CCCCC1C(=O)O (stereo not shown) [1-{[(3-aminopropyl)thio]carbonothioyl}piperidine-2-carboxilic acid]
- effectiveness in killing cancer cells in comparison to CCK3 (cancer cells): not effective at all

Compound: C[N+](C)(C)CCOC(=S)SCCCN.[Cl-] [2({[(3-aminopropyl)thio]carbonothionyl}oxy)-N,N,N-trimethylethanolamine-chloride]
- effectiveness in killing cancer cells in comparison to CCK3 (cancer cells): less effective than CCK3

Compound: Cl.NCCCSC(=S)N1CCCC1 [3-Aminopropylpyrrolidine-1-carbodithionate. HCl salt]
- effectiveness in killing cancer cells in comparison to CCK3 (cancer cells): significantly less effective than CCK3

Compound: Cl.NCCCSC(=S)N1CCCCC1 [CCK3, 3-aminopropylpiperidine-1-carbodithioate.HCl salt]
- induction of cell death in the presence of cadmium or zinc (cancer cells): retains its ability to carry metals inside the cells resulting in cell death; also recorded: killed the cells
- cell death indicated by cell morphology (cell rounding) [1]: no effects on cell morphology
- cell death indicated by cell morphology (MCF-7 cells [2]): failed to significantly alter cell morphology
- cell death indicated by cell morphology ([3]; 20 μM CCK3, 120 μg/ml cadmium/MT, alone or combined, 8 hours, 10% serum): failed to significantly alter cell morphology
- cell death indicated by cell morphology (FIG. 6 legend) ([3]; CCK3 10 μM, cadmium/MT 60 μg/ml, zinc/MT 240 μg/ml, alone or MT+CCK3, 24 hours): failed to significantly alter cell morphology
- cells killed (trypan blue exclusion assay) (ZR-75-1 cells; 15 μM CCK3, 60 μg/ml cadmium/MT, 240 μg/ml zinc/MT, alone or MT+CCK3, 24 h): practically no effects
- cells with decreased viability / killed (trypan blue exclusion assay) (ZR-75-1 cells; 20 μM CCK3, 120 μg/ml cadmium/MT, alone or combined, 8 hours): 16%
- cells killed (trypan blue exclusion assay) (MCF-7 cells [4]): practically no effects on viability
- reduction of the viability of cancer cells [5]: no effects
- decrease of DNA synthesis (T47D cells): 8%
- cell death indicated by cell morphology (cell rounding) [6]: no effects on cell morphology
- cell viability (FIG. 4) [7]: significantly smaller than the combined effects

Compound: S=C(S)N1CCCC1 [PDC, pyrrolidinecarbodithioic acid, reference compound]
- decrease of DNA synthesis (MDA-MB-231 cells): 12%

Compound: CCN(CC)C(=S)S [diethyldithocarbamate, reference compound]
- induction of cell death in the presence of cadmium or zinc (cancer cells): as effective as CCK3

Compound: cadmium
- cell death indicated by cell morphology (cell rounding) [1]: no effects on cell morphology
- decrease of DNA synthesis (MDA-MB-231 cells): 6%
- decrease of DNA synthesis (T47D cells): 13%
- cell death indicated by cell morphology (cell rounding) [6]: no effects on cell morphology
